Where two headings read alike, the source gives them in different places. Where no end group is shown, it is not given here.
Experiments:
Ramos cells [1] = assay type: cell-based, human
Source text: (§1) Ramos (CRL-1596; American Type Culture Collection [ATCC]) is a human cell line of GC centroblast-derived BCL that was isolated from a Burkitt’s lymphoma patient, and Daudi (CCL-213; ATCC) is another human BCL cell line of Burkitt’s type. The control human cell lines of K562 (CCL-243; ATCC) and THP-1 (TIB-202; ATCC) wre originated from myelogenous and monocytic leukemia patients, respectively. NIH3T3 (CRL-1658; ATCC) is a mouse cell line of fibroblasts. […] Cells were counted on a hemocytometer (Neubauer; Marienfeld) after staining their aliquot with an equal volume of 0.4% trypan blue solution. All of the cell culture media and their supplements were purchased from Gibco (Thermo Fisher Scientific).
Stock solutions of various peptides, whose syntheses were custom ordered from GenScript via Koma Biotech in Korea, were first prepared by dissolving the lyophilized powder in PBS. Then, their aliquots were serially diluted with PBS to reach the final concentrations required for the experiments. […] To chase the effect of peptide transfection on the cellular proliferation, cells were counted daily on a hemocytometer by staining their aliquot with an equal volume of 0.4% trypan blue solution and finally harvested to analyze the effects of transfected peptide on various molecular events such as protein localization, transcription factor binding, gene expression, and rRNA production. […]

Ramos cells [2] = assay type: cell-based, human; settings: control peptides added directly to culture media without sodium pyruvate (Figure 6A)
Source text: as §1

Daudi cells = assay type: cell-based, human; settings: control peptides added directly to culture media without sodium pyruvate (Figure 6B)
Source text: as §1

[3] = test system: Ramos, Daudi, K562 and THP-1 cells
Protocol: (§2) For a 2-mL culture of cells in each well of a 6-well plate, 7 μL peptide solution in a concentration of 10 μg/μL in PBS was added directly to the culture media, which were RPMI-1640 supplemented with fetal bovine serum (10%), L-glutamine (1×), nonessential amino acids (1×), penicillin/streptomycin (1×), and 2-mercaptoethanol (50 μM), but not sodium pyruvate. The intrinsic cell membrane permeability of peptide with its N-terminally conjugated FAM fluorophore was checked by observing the peptide-treated cells in a confocal fluorescence microscope (Zeiss) after mounting the washed cells on a microscope slide with a cover glass. It was important that the treated cells be washed well, for example, five times with warm PBS-T (0.01% Tween 20) to remove any nonspecifically adsorbed FAM fluorophore-conjugated peptides. Various custom-ordered peptides with or without the conjugated FAM fluorophore to be used for this direct addition to the cells in culture media as well as for their intravenous injection to the xenografted nude mice as described below were prepared as mentioned above.

[4] = test system: Ramos, Daudi, K562 and THP-1 cells; experiment: Intrinsic cell membrane permeability of FAM-conjugated peptides added directly to culture media (confocal fluorescence microscopy); settings: for intrinsic cell membrane permeability: FAM fluorophore-labeled peptides added directly to Ramos, Daudi, K562 and THP-1 cells in culture media, cells washed with PBS-T, confocal fluorescence (Figure 6); for cell membrane permeability: N-terminally FAM-conjugated peptide added directly to culture media, confocal fluorescence (Figure 5A)
Protocol: as §2

| Molecule | proliferation of Crlz-1+ Ramos cells inhibited (Ramos cells [2]) | proliferation of Crlz-1+ Daudi cells inhibited (Daudi cells) | intrinsic cell membrane permeability [3] | intrinsic cell membrane permeability [4] | cell membrane permeability ([4]; absence of sodium pyruvate) | also measured |
| --- | --- | --- | --- | --- | --- | --- |
| O=C([O-])CCN1C(=O)/C(=C/c2ccc(-c3ccc([N+](=O)[O-])cc3)o2)SC1=S.[K+] [KYA1797K] | – | – | – | – | – | saturation concentration for cell growth inhibition (Ramos cells [1]; titration in Xfect transfection/treatment of Ramos cells, in the absence of any cell death (Figures 2D, 2E)): 5.5 µg/mL |
| ADEAIT | not | not | no such intrinsic cell membrane permeability | – | – | – |
| AKRAIT [AKRAIT] | – | – | – | intrinsic cell membrane permeabilities | intrinsically membrane permeable | death of transfected cells (Ramos cells [1]): not observed |
| AVGAGT [AVGAGT] | – | – | – | intrinsic cell membrane permeabilities | permeable through the membrane regardless of sodium pyruvate | cell membrane permeability ([4]; presence of sodium pyruvate): permeable through the membrane regardless of sodium pyruvate |
| TIARKA | not | not | intrinsic cell membrane permeabilities | – | – | – |

— article PMC11906403, “Anti-lymphoma peptide is inspired by mapping a sequence of four amino acids of KRAI motif as nuclear localization signal of Crlz-1” (Molecular Therapy Oncology, 2025)
